Measurements from US12110295B2, “WD40 repeat domain protein 5 (WDR5) degradation/disruption compounds and methods of use” (Icahn School of Medicine at Mount Sinai, priority 2018, dated 2024).

What follows are compounds tested against WDR5 (Homo sapiens, UniProt P61964) (assay: Screening of putative WDR5 degraders by Western blot in MV4;11 and/or MIAPACA2 cells). Conditions: summary of screening, FIGS. 6-10.
Type: cell-based
Set-up: After WDR5 degrader treatment, cells were collected and lysed; endogenous in cells; host or cells: MV4;11 and/or MIAPACA2
In short: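 MV4;11 (1×10^6/well) or MIAPACA2 (1×10^5/well) cells treated 18 h with compound at paired doses between 0.1 and 10 μM, DMSO as control. Total lysates immunoblotted for WDR5 with vinculin, tubulin or GAPDH loading controls; fluorescent secondary detection.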
C[C@@H]1CN(c2ccc(-c3cc(CN4CCN(CCNC(=O)CCCCCNc5cccc6c5C(=O)N(C5CCC(=O)NC5=O)C6=O)CC4)ccc3F)cc2NC(=O)c2c[nH]c(=O)cc2C(F)(F)F)C[C@H](C)N1C (stereo partly drawn) [XF078-22, N-(5′-((4-(2-(6-((2-(2,6-dioxopiperidin-3-yl)-1,3-dioxoisoindolin-4-yl)amino)hexanamido)ethyl)piperazin-1-yl)methyl)-2′-fluoro-4-((3S,5R)-3,4,5-trimethylpiperazin-1-yl)-[1,1′-biphenyl]-3-yl)-6-oxo-4-(trifluoromethyl)-1,6-dihydropyridine-3-carboxamide] was tested, and the “effective degradation of WDR5 in MV4;11 and/or MIAPACA2 cells” value (shortened to “effective degradation of WDR5”) was “able to effectively degrade WDR5”. With C[C@@H]1CN(c2ccc(-c3cc(CN4CCN(CCNC(=O)CCOCCOCCOCCOCCNc5cccc6c5C(=O)N(C5CCC(=O)NC5=O)C6=O)CC4)ccc3F)cc2NC(=O)c2c[nH]c(=O)cc2C(F)(F)F)C[C@H](C)N1C (stereo partly drawn) [XF078-28, N-(5′-((4-(1-((2-(2,6-dioxopiperidin-3-yl)-1,3-dioxoisoindolin-4-yl)amino)-15-oxo-3,6,9,12-tetraoxa-16-azaoctadecan-18-yl)piperazin-1-yl)methyl)-2′-fluoro-4-((3S,5R)-3,4,5-trimethylpiperazin-1-yl)-[1,1′-biphenyl]-3-yl)-6-oxo-4-(trifluoromethyl)-1,6-dihydropyridine-3-carboxamide] the “effective degradation of WDR5” value was “able to effectively degrade WDR5”. C[C@@H]1CN(c2cc(F)c(-c3cnc(N4CCN(C(=O)CCOCCOCCOCCOCCNc5cccc6c5C(=O)N(C5CCC(=O)NC5=O)C6=O)CC4)nc3)cc2NC(=O)c2ccc(F)cc2C(F)(F)F)C[C@H](C)N1C (stereo partly drawn) [XF078-126, N-(5-(2-(4-(1-((2-(2,6-dioxopiperidin-3-yl)-1,3-dioxoisoindolin-4-yl)amino)-3,6,9,12-tetraoxapentadecan-15-oyl)piperazin-1-yl)pyrimidin-5-yl)-4-fluoro-2-((3S,5R)-3,4,5-trimethylpiperazin-1-yl)phenyl)-4-fluoro-2-(trifluoromethyl)benzamide] was tested, and the “effective degradation of WDR5” value was “able to effectively degrade WDR5”. Cc1ncsc1-c1ccc(CNC(=O)[C@@H]2C[C@@H](O)CN2C(=O)[C@@H](NC(=O)CCCCCCCC(=O)N2CC=C(c3cc(NC(=O)c4c[nH]c(=O)cc4C(F)(F)F)c(N4C[C@@H](C)N(C)[C@@H](C)C4)cc3F)CC2)C(C)(C)C)cc1 [XF078-44, N-(4-fluoro-5-(1-(9-(((S)-1-((2S,4R)-4-hydroxy-2-((4-(4-methylthiazol-5-yl)benzyl)carbamoyl)pyrrolidin-1-yl)-3,3-dimethyl-1-oxobutan-2-yl)amino)-9-oxononanoyl)-1,2,3,6-tetrahydropyridin-4-yl)-2-((3S,5R)-3,4,5-trimethylpiperazin-1-yl)phenyl)-6-oxo-4-(trifluoromethyl)-1,6-dihydropyridine-3-carboxamide] was tested, and the “effective degradation of WDR5” value was “able to effectively degrade WDR5”. With Cc1ncsc1-c1ccc(CNC(=O)[C@@H]2C[C@@H](O)CN2C(=O)[C@@H](NC(=O)CCOCCOCCC(=O)N2CCN(c3ncc(-c4cc(NC(=O)c5ccc(F)cc5C(F)(F)F)c(N5C[C@@H](C)N(C)[C@@H](C)C5)cc4F)cn3)CC2)C(C)(C)C)cc1 [XF078-102, (2S,4R)-1-((S)-2-(3-(2-(3-(4-(5-(2-fluoro-5-(4-fluoro-2-(trifluoromethyl)benzamido)-4-((3S,5R)-3,4,5-trimethylpiperazin-1-yl)phenyl)pyrimidin-2-yl)piperazin-1-yl)-3-oxopropoxy)ethoxy)propanamido)-3,3-dimethylbutanoyl)-4-hydroxy-N-(4-(4-methylthiazol-5-yl)benzyl)pyrrolidine-2-carboxamide] the “effective degradation of WDR5” value was “able to effectively degrade WDR5”.
